Results from patent US20090156569A1, “ORAL CONTRACEPTIVE SPRAY” (N.V. Organon, priority 2007, published 2009).
In brackets after ≈: the same amount, converted by molar mass. Like-named read-outs stand apart in the source and are kept apart here.

Experiments:
[1] = Solubility of the active ingredients in liquid solutions (Liquids 1-5); assay type: physicochemical; settings: for solubility: aqueous with cosolvent or surfactant or cyclodextrin
Protocol: Solutions were prepared essentially according to the procedure as described in Example 1. The solubility of each one of the active ingredients desogestrel, 3-β-hydroxydesogestrel, 3-keto desogestrel and ethinyl estradiol in these solutions was tested.

[2] = exposure of etonogestrel after oral ingestion as its prodrug desogestrel; cited from earlier work
[3] = set-up: species or system human; settings: in vivo
Protocol: Sixteen healthy female subjects were treated with 0.1 ml of the oral spray as described in Example 1 or with Marvelon® tablets (150 μg desogestrel, 30 μg ethinyl estradiol) in a cross over design. The spray was administered sublingually. Marvelon® was ingested. Serum concentration versus time profiles were obtained for etonogestrel and plasma concentration versus time profiles were obtained for ethinyl estradiol. FIGS. 2, 3, 4 and 5 show the average values of the serum/plasma concentrations versus time profiles.
This leads to the conclusion that a lower dose of either etonogestrel, or ethinyl estradiol, or both is possible for oral mucosal administration.

[4] = Cross-over pharmacokinetic study: sublingual oral spray (75 μg etonogestrel) versus ingested Cerazette tablet; assay type: in vivo, human; settings: oral mucosal administration of etonogestrel; FIGS. 6 and 7
Protocol: Sixteen healthy female subjects were treated with 0.1 ml of oral spray comprising the liquid as depicted in table 6 to administer 75 μg etonogestrel, or with Cerazette® tablets (75 μg desogestrel) in a cross over design. The spray has been administered sublingually. Cerazette® has been ingested. Serum concentration versus time profiles were obtained for etonogestrel.
This leads to the conclusion that a lower dose of either etonogestrel is possible for oral mucosal administration to achieve a similar pharmacological effect.

[5] = Liquid 1: water 25, ethanol 20, glycerol 25, propylene glycol 25, polysorbate 80 5 % v/v, read-out: Solubility in Liquid 1
[6] = Liquid 2: water 25, ethanol 25, glycerol 20, propylene glycol 25, polysorbate 80 5 % v/v, read-out: Solubility in Liquid 2
[7] = Liquid 3: water 25, ethanol 30, glycerol 15, propylene glycol 25, polysorbate 80 5 % v/v, read-out: Solubility in Liquid 3
[8] = Liquid 4: water 25, ethanol 25, glycerol 25, propylene glycol 25, polysorbate 80 0 % v/v, read-out: Solubility in Liquid 4
[9] = Liquid 5: water 30, ethanol 30, glycerol 25, propylene glycol 15, polysorbate 80 0 % v/v, read-out: Solubility in Liquid 5

solubility [1, 5] [mg/mL] | solubility [1, 6] [mg/mL] | solubility [1, 7] [mg/mL] | solubility [1, 8] [mg/mL] | solubility [1, 9] [mg/mL] | levels of etonogestrel (in serum) compared to oral ingestion of equivalent amounts using a tablet [3] | levels of etonogestrel (in serum) compared to oral ingestion of an equivalent amount of desogestrel using a tablet [4] | levels of ethinyl estradiol (in plasma) compared to oral ingestion of equivalent amounts using a tablet [3] | SMILES | oral bioavailability [2] | Solubility in Liquid 1 [1] | Solubility in Liquid 2 [1] | Solubility in Liquid 3 [1] | Solubility in Liquid 4 [1] | Solubility in Liquid 5 [1]
5.5 (≈ 17 mM) | 5.8 (≈ 17.9 mM) | 7.3 (≈ 22.5 mM) | 4.2 (≈ 12.9 mM) | 3.4 (≈ 10.5 mM) | much higher levels | much higher levels |  | C#C[C@]1(O)CC[C@H]2[C@@H]3CCC4=CC(=O)CC[C@@H]4[C@H]3C(=C)C[C@@]21CC [Etonogestrel, 13-ethyl-11methylene-17β-hydroxy-18,19-dinor-17α-pregnen-3-one] | about 80% |  |  |  |  | 
11.3 (≈ 36.4 mM) | 12.4 (≈ 39.9 mM) | 13.4 (≈ 43.2 mM) | 2.1 (≈ 6.76 mM) | 1.5 (≈ 4.83 mM) |  |  |  | C#C[C@]1(O)CC[C@H]2[C@@H]3CCC4=CCCC[C@@H]4[C@H]3C(=C)C[C@@]21CC [Desogestrel] |  |  |  |  |  | 
 |  |  |  |  |  |  |  | C#C[C@]1(O)CC[C@H]2[C@@H]3CCC4=C[C@@H](O)CC[C@@H]4[C@H]3C(=C)C[C@@]21CC [3-β-Hydroxy-desogestrel] |  | ≧8.8 mg/mL | ≧7.0 mg/mL | ≧6.1 mg/mL | ≧6.9 mg/mL | ≧8.7 mg/mL
≥ 10.9 | ≥ 10.8 | ≥ 14.1 | 11.2 (≈ 37.8 mM) | 12.4 (≈ 41.8 mM) |  |  | much higher levels | C#C[C@]1(O)CC[C@H]2[C@@H]3CCc4cc(O)ccc4[C@H]3CC[C@@]21C [Ethinyl Estradiol] |  |  |  |  |  | 
